Test results published in patent US12187773B2, “Modified GIP peptide analogues” (Antag Therapeutics ApS, priority 2018, dated 2025).
Read-outs that look alike come from different tables or passages of the source. *1 amine or outer side, *2 acyl side, *3 side chain or, on linkers, in order; H or OH if unused. Where a SMILES comes first, the peptide text is derived from it. Side-chain parts run from the residue outwards. [ ]: non-standard residue; d: D form. The star is where a group is joined. C16 diacid = O=C(O)CCCCCCCCCCCCCCC(=O)*; γGlu = O=C(O)[C@H](CCC(=O)[*:2])N[*:1]; pGlu = O=C1CC[C@@H](C(=O)O)N1; AEEA = NCCOCCOCC(=O)O

Experiments:
human GIP receptor [1] = target: T1, human GIP receptor (Homo sapiens, UniProt P48546); assay: cAMP accumulation, agonism (DiscoveRx HitHunter cAMP XS assay); assay type: cell-based; parameters: host or cells: COS-7 (transient, calcium phosphate; pCMV-Script vector); settings: Table 1B; DiscoveRx; COS-7 cells
T1 sequence (P48546 22-466): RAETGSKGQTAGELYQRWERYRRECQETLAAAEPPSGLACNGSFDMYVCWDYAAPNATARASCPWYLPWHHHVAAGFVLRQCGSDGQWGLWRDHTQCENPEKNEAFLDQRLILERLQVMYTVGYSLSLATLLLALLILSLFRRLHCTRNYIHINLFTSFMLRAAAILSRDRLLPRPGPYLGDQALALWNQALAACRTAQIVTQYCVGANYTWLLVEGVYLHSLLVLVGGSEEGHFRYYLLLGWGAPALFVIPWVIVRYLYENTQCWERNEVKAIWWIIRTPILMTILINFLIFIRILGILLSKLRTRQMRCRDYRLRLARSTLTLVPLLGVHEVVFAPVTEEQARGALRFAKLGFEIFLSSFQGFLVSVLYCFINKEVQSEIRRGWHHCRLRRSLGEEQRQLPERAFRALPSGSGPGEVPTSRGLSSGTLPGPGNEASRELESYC
How it was run: (§1)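 cAMP accumulation measured by HitHunter cAMP XS in COS-7 cells transiently expressing human GIP receptor, after 30 min in HBS with 1 mM IBMX at 37 °C. Antagonists preincubated 10 min before GIP giving 50-80% of maximum, then 20 min more; agonist mode used 30 min ligand exposure.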

[2] = Elimination half-life (T1/2) estimated in Göttingen minipigs; assay type: in vivo
Experimental: 2-3 Göttingen minipigs were subcutaneously administered one of the GIP analogues of the present invention (1-10 nmol/kg, total volume 2-6 mL) and blood samples were collected before and up to 432 hours post subcutaneous administration.) from a central venous catheter. The catheter was flushed with saline and heparin between samples. Blood was collected into cold EDTA tubes, centrifuged and plasma was kept at −20° C. pending analyses.
Concentrations of the acylated GIP(3-30)NH2 or GIP(5-30)NH2 analogues in blood samples from Göttingen minipigs were analyzed by RIA. Analogues' immunoreactivity was determined using antiserum Ab95234, Ab95235, Ab95236, a polyclonal in-house antibody raised in rabbits specific for either the mid region of GIP(1-30)NH2 or amidated C-terminus of GIP(3-30)NH2.
In addition to the hormone analysis, blood concentrations of AT374, 380, 382-385, 392-393 were determined by LC/MS performed by Red Glead Discovery AB, Lund, Sweden. The plasma samples were precipitated by addition of 3 parts ethanol followed by thorough mixing. After centrifugation and dilution of the supernatant, the samples were analyzed by LC-MS/MS and compared with a 9-point calibration curve. The calibration curves were prepared in naïve plasma matrix from Göttingen minipigs.

human GIP receptor [3] = target: T1, human GIP receptor; assay: cAMP accumulation, antagonism (DiscoveRx HitHunter cAMP XS assay); assay type: cell-based; parameters: host or cells: COS-7 (transient, calcium phosphate; pCMV-Script vector); settings: for cAMP antagonism, % inhib: % inhibition of Emax
How it was run: as §1

human GIP receptor [4] = target: T1, human GIP receptor; assay: cAMP antagonism (CisBio cAMP Dynamic 2 HTRF assay); assay type: cell-based; parameters: pCMV-Script vector
How it was run: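 Four-parameter fits of cAMP dose-response gave pIC50. cAMP fall was quantified by HTRF competition, ratio 665/620 nm after 60 min at room temperature, against a cAMP standard curve.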

human GIP receptor [5] = target: T1, human GIP receptor; assay: cAMP agonism (CisBio cAMP Dynamic 2 HTRF assay); assay type: cell-based; settings: for Emax: HEK293, read-out: cAMP agonism, % Efficacy, Table 1C, HEK-293 cells
Experimental: To test for agonistic properties at the GIP receptor, compounds were diluted and added to cells as described above and incubated for 30 min at 37° C. The resulting increase in intracellular cAMP was determined using the CisBio cAMP Dynamic 2 HTRF Assay Kit as described above.

GLP1 receptor (GLP1R) = target: T2, GLP1 receptor (GLP1R) (Homo sapiens, UniProt P43220); assay: cAMP assay - selectivity, antagonism at GLP1 receptor; assay type: cell-based; settings: Table 3A; COS-7 cells; agonist GLP1 at 50-80% of maximal cAMP
T2 construct: expressed in transfected cells; host or cells: COS-7 (transient)
T2 sequence (P43220 24-463, species assumed): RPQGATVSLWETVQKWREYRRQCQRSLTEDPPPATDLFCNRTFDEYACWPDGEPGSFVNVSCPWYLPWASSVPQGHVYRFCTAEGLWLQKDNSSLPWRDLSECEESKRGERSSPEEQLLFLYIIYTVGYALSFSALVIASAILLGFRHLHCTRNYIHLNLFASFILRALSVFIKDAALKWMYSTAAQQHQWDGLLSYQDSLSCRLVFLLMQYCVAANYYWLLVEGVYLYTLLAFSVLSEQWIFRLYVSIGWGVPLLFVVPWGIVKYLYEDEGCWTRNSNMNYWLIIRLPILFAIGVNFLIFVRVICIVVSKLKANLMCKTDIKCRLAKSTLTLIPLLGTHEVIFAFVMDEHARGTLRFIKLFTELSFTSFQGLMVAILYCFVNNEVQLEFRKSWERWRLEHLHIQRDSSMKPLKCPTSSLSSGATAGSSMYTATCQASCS
Experimental: Transient transfected COS-7 cells expressing the either of the GLP1 receptor (GLP1R), GLP2 receptor (GLP2R), glucagon receptor (GcgR) or secretin receptor (SCTR) were seeded in white 96-well plates with a density of 3.5*10^4/well. The day after, the cells were washed twice with Hepes buffered saline (HBS) buffer and incubated with HBS and 1 mM 3-isobutyl-1-methylxanthine (IBMX) for 30 min at 37° C. To test for agonistic properties, ligands were added and incubated for 30 min at 37° C. In order to test for antagonistic properties, the cells were preincubated with the antagonists for 10 min prior to the addition the natural agonist for the expressed receptor (GLP1 for GLP1R expressing cells, GLP2 for GLP2R expressing cells, glucagon for the GcgR and secretin for the SCTR) and subsequent incubated for 20 additional min. […] The HitHunter™ cAMP XS assay (DiscoveRx) was carried out according to the manufacturer's instructions.

[6] = sc, Table 1B, species not given, unit h, LC/MS in Göttingen minipig plasma for these IDs, subcutaneous 1-10 nmol/kg, read-out: T½ (converted)
[7] = Table 1B, DiscoveRx, COS-7 cells
[8] = Table 1C, CisBio, HEK-293 cells
[9] = cAMP antagonism, nM (IC50), Table 1C, CisBio, HEK-293 cells, agonist GIP1-42 at EC50
[10] = Göttingen, minipig, plasma, subcutaneous, Example 1, read-out: T1/2 (converted)
[11] = cAMP antagonism, nM (IC50), Table 1B, DiscoveRx, transiently transfected COS-7 cells

Compound	cAMP agonism, Emax (human GIP receptor [1])	half-life [2, 6]	IC50 (human GIP receptor [3]; IC50-value (GIPR antagonism), Examples 1 and 2, values of Tables 1B and 2)	cAMP antagonism, % inhib (human GIP receptor [3]; [7])	cAMP antagonism, % inhib (human GIP receptor [4]; [8])	IC50 (human GIP receptor [4]; [9])	Emax (human GIP receptor [5])	GLP-1R, Antagonism, nM (GLP1 receptor (GLP1R))	half-life [2, 10]	GIPR, Antagonism, % inhib (human GIP receptor [3]; Table 3A/3B, DiscoveRx, COS-7 cells)	IC50 (human GIP receptor [3]; [11])	IC50 (human GIP receptor [4]; GIPR, Antagonism, nM, Table 3C, CisBio assay)	GIPR, Antagonism, % inhib (human GIP receptor [4]; Table 3C, CisBio assay)	cAMP agonism, % Efficacy (human GIP receptor [5]; Table 1C, HEK-293 cells)
CC[C@H](C)[C@H](NC(=O)[C@H](CO)NC(=O)[C@H](Cc1ccc(O)cc1)NC(=O)[C@H](CC(=O)O)NC(=O)[C@H](CO)NC(=O)[C@@H](NC(=O)[C@H](Cc1ccccc1)NC(=O)[C@@H](NC(=O)CNC(=O)[C@@H](N)CCC(=O)O)[C@@H](C)O)[C@@H](C)CC)C(=O)N[C@@H](C)C(=O)N[C@@H](CCSC)C(=O)N[C@@H](CC(=O)O)C(=O)N[C@@H](CCCNC(=N)N)C(=O)N[C@H](C(=O)N[C@@H](CCCCNC(=O)COCCOCCNC(=O)COCCOCCNC(=O)CC[C@H](NC(=O)CCCCCCCCCCCCCCC(=O)O)C(=O)O)C(=O)N[C@@H](CCC(N)=O)C(=O)N[C@@H](CCC(N)=O)C(=O)N[C@@H](CC(=O)O)C(=O)N[C@@H](Cc1ccccc1)C(=O)N[C@H](C(=O)N[C@@H](CC(N)=O)C(=O)N[C@@H](Cc1c[nH]c2ccccc12)C(=O)N[C@@H](CC(C)C)C(=O)N[C@@H](CC(C)C)C(=O)N[C@@H](C)C(=O)N[C@@H](CCC(N)=O)C(=O)N[C@@H](CCCNC(=N)N)C(N)=O)C(C)C)[C@@H](C)CC [AT374] (H-EGTFISDYSIAMDRIK([AEEA-AEEA-γGlu-C16 diacid])QQDFVNWLLAQR-NH2; N-terminus assumed)	No Agonism	840 min	12 nM	100%	86%	17.1 nM	0%	–	–	–	–	–	–	–
CC[C@H](C)[C@H](NC(=O)[C@H](CO)NC(=O)[C@H](Cc1ccc(O)cc1)NC(=O)[C@H](CC(=O)O)NC(=O)[C@H](CO)NC(=O)[C@@H](NC(=O)[C@H](Cc1ccccc1)NC(=O)[C@@H](NC(=O)CNC(=O)[C@@H](N)CO)[C@@H](C)O)[C@@H](C)CC)C(=O)N[C@@H](C)C(=O)N[C@@H](CCSC)C(=O)N[C@@H](CC(=O)O)C(=O)N[C@@H](CCCNC(=N)N)C(=O)N[C@H](C(=O)N[C@@H](CCCCNC(=O)CCCCCCCCCCCCCCC(=O)O)C(=O)N[C@@H](CCC(N)=O)C(=O)N[C@@H](CCC(N)=O)C(=O)N[C@@H](CC(=O)O)C(=O)N[C@@H](Cc1ccccc1)C(=O)N[C@H](C(=O)N[C@@H](CC(N)=O)C(=O)N[C@@H](Cc1c[nH]c2ccccc12)C(=O)N[C@@H](CC(C)C)C(=O)N[C@@H](CC(C)C)C(=O)N[C@@H](C)C(=O)N[C@@H](CCC(N)=O)C(=O)N[C@@H](CCCNC(=N)N)C(N)=O)C(C)C)[C@@H](C)CC [AT392] (H-SGTFISDYSIAMDRIK(C16 diacid)QQDFVNWLLAQR-NH2; N-terminus assumed)	No Agonism	360 min	–	93%	96%	68.1 nM	–	No antagonism	360 min	93.0%	1 nM	68.1 nM	96%	0%
CC[C@H](C)[C@H](NC(=O)[C@H](CO)NC(=O)[C@H](Cc1ccc(O)cc1)NC(=O)[C@H](CC(=O)O)NC(=O)[C@H](CO)NC(=O)[C@@H](NC(=O)[C@H](Cc1ccccc1)NC(=O)[C@@H](NC(=O)CNC(=O)[C@@H]1CCC(=O)N1)[C@@H](C)O)[C@@H](C)CC)C(=O)N[C@@H](C)C(=O)N[C@@H](CCSC)C(=O)N[C@@H](CC(=O)O)C(=O)N[C@@H](CCCNC(=N)N)C(=O)N[C@H](C(=O)N[C@@H](CCCCNC(=O)COCCOCCNC(=O)COCCOCCNC(=O)COCCOCCNC(=O)CC[C@H](NC(=O)CCCCCCCCCCCCCCC(=O)O)C(=O)O)C(=O)N[C@@H](CCC(N)=O)C(=O)N[C@@H](CCC(N)=O)C(=O)N[C@@H](CC(=O)O)C(=O)N[C@@H](Cc1ccccc1)C(=O)N[C@H](C(=O)N[C@@H](CC(N)=O)C(=O)N[C@@H](Cc1c[nH]c2ccccc12)C(=O)N[C@@H](CC(C)C)C(=O)N[C@@H](CC(C)C)C(=O)N[C@@H](C)C(=O)N[C@@H](CCC(N)=O)C(=O)N[C@@H](CCCNC(=N)N)C(N)=O)C(C)C)[C@@H](C)CC [AT380] ([pGlu]GTFISDYSIAMDRIK([AEEA-AEEA-AEEA-γGlu-C16 diacid])QQDFVNWLLAQR-NH2)	No Agonism	1200 min	–	100%	82%	85.8 nM	8%	–	1200 min	–	7 nM	–	–	–
CC[C@H](C)[C@H](NC(=O)[C@H](CO)NC(=O)[C@H](Cc1ccc(O)cc1)NC(=O)[C@H](CC(=O)O)NC(=O)[C@H](CO)NC(=O)[C@@H](NC(=O)[C@H](Cc1ccccc1)NC(=O)[C@@H](NC(=O)CNC(=O)CN)[C@@H](C)O)[C@@H](C)CC)C(=O)N[C@@H](C)C(=O)N[C@@H](CCSC)C(=O)N[C@@H](CC(=O)O)C(=O)N[C@@H](CCCNC(=N)N)C(=O)N[C@H](C(=O)N[C@@H](CCCCNC(=O)COCCOCCNC(=O)CC[C@H](NC(=O)CCCCCCCCCCCCCCC(=O)O)C(=O)O)C(=O)N[C@@H](CCC(N)=O)C(=O)N[C@@H](CCC(N)=O)C(=O)N[C@@H](CC(=O)O)C(=O)N[C@@H](Cc1ccccc1)C(=O)N[C@H](C(=O)N[C@@H](CC(N)=O)C(=O)N[C@@H](Cc1c[nH]c2ccccc12)C(=O)N[C@@H](CC(C)C)C(=O)N[C@@H](CC(C)C)C(=O)N[C@@H](C)C(=O)N[C@@H](CCC(N)=O)C(=O)N[C@@H](CCCNC(=N)N)C(N)=O)C(C)C)[C@@H](C)CC [AT508] (HELM PEPTIDE1{G.G.T.F.I.S.D.Y.S.I.A.M.D.R.I.K.Q.Q.D.F.V.N.W.L.L.A.Q.R.[am]}|PEPTIDE2{[O=C(O)CCCCCCCCCCCCCCC(=O)[*:2]].[gGlu].[O=C(COCCOCCN[*:1])[*:2]]}$PEPTIDE1,PEPTIDE2,16:R3-3:R2$$$V2.0; N-terminus assumed)	No Agonism	–	–	100%	89%	–	0%	–	–	–	23 nM	–	–	–
